Measurements reported in ChEMBL document CHEMBL1140399, “Synthesis and evaluation of 3-anilino-quinoxalinones as glycogen phosphorylase inhibitors” (Bioorg Med Chem Lett, 2005).

Columns and labels:
Mus musculus [1] = test: Blood glucose levels in mice was measured using glucometer after 0 hours of compound administration at 30 mg/kg body weight via oral gavage
Mus musculus [2] = test: Blood glucose levels in mice was measured using glucometer after 4 hours of compound administration at 30 mg/kg body weight via oral gavage
Mus musculus [3] = test: Blood glucose levels in mice was measured using glucometer after 8 hours of compound administration at 30 mg/kg body weight via oral gavage
Mus musculus [4] = test: Blood glucose levels in mice was measured using glucometer after 1 hours of compound administration at 30 mg/kg body weight via oral gavage
Mus musculus [5] = test: Blood glucose levels in mice was measured using glucometer after 2 hours of compound administration at 30 mg/kg body weight via oral gavage

Row | Compound | Blood glucose level (Mus musculus [1]) | Blood glucose level (Mus musculus [2]) | Blood glucose level (Mus musculus [3]) | Blood glucose level (Mus musculus [4]) | Blood glucose level (Mus musculus [5])
1 | Cn1c(=O)c(Nc2ccc(C(=O)NCc3cccs3)cc2)nc2ccccc21 | 334 | 313.3 | 224.9 | 306.4 | 351.3
2 | CCn1c(=O)c(Nc2ccc(C(=O)NCc3cccs3)cc2)nc2ccccc21 | 320.3 | 383.3 | 325.9 | 349.1 | 338.4
3 | Cn1c(=O)c(Nc2ccc(C(=O)NCc3cccs3)cc2)nc2cccnc21 | 357.4 | 362.5 | 328.4 | 305.4 | 356
